Laboratory results as given in patent publication US11673890B2, “N1-pyrazolospiroketone acetyl-CoA carboxylase inhibitors” (Pfizer Inc., priority 2010, dated 2023).
Read-outs that look alike come from different tables or passages of the source.

Key:
[1] = target: T1, recombinant human ACC1 (rhACC1) (Homo sapiens, UniProt Q13085, DEL44-44); assay: recombinant hACC1 Transcreener assay (ADP detection FP); assay type: biochemical
T1 construct: infected with recombinant baculovirus containing full length human ACC1 cDNA; made in house; host or cells: SF9 insect cells (baculovirus)
Description: For example direct inhibition of ACC activity, for the compound of Formula (1) was determined using preparations of recombinant human ACC1 (rhACC1) and recombinant human ACC2 (rhACC2).
[1] Preparation of rhACC1. Two liters of SF9 cells, infected with recombinant baculovirus containing full length human ACC1 cDNA, were suspended in ice-cold lysis buffer (25 mM Tris, pH 7.5; 150 mM NaCl; 10% glycerol; 5 mM imidazole (EMD Bioscience; Gibbstown, N.J.); 2 mM TCEP (BioVectra; Charlottetown, Canada); Benzonase nuclease (10000 U/100 g cell paste; Novagen; Madison, Wis.); EDTA-free protease inhibitor cocktail (1 tab/50 mL; Roche Diagnostics; Mannheim, Germany). Cells were lysed by 3 cycles of freeze-thaw and centrifuged at 40,000×g for 40 minutes (4° C.). Supernatant was directly loaded onto a HisTrap FF crude column (GE Healthcare; Piscataway, N.J.) and eluted with an imidazole gradient up to 0.5 M over 20 column volumes (CV). ACC1-containing fractions were pooled and diluted 1:5 with 25 mM Tris, pH 7.5, 2 mM TCEP, 10% glycerol and direct loaded onto a CaptoQ (GE Healthcare) column and eluted with an NaCl gradient up to 1 M over 20 CV's. Phosphate groups were removed from purified ACC1 by incubation with lambda phosphatase (100 U/10 μM target protein; New England Biolabs; Beverly, Mass.) for 14 hours at 4° C.; okadaic acid was added (1 μM final concentration; Roche Diagnostics) to inhibit the phosphatase. Purified ACC1 was exchanged into 25 mM Tris, pH 7.5, 2 mM TCEP, 10% glycerol, 0.5 M NaCl by 6 hour dialysis at 4° C. Aliquots were prepared and frozen at −80° C.
[2] […] The final conditions for the assay were 50 mM HEPES, pH 7.2, 10 mM MgCl2, 7.5 mM tripotassium citrate, 2 mM DTT, 0.1 mg/mL BSA, 30 μM acetyl-CoA, 50 μM ATP, and 10 mM KHCO3. Typically, a 10 μl reaction was run for 120 min at 25° C., and 10 μl of Transcreener stop and detect buffer was added and the combination incubated at room temp for an additional 1 hour.
All of the examples in both assays were run with a minimum of n=3.

[2] = target: T2, recombinant human ACC2 (rhACC2) (Homo sapiens, UniProt O00763, V2141I); assay: recombinant hACC2 Transcreener assay (ADP detection FP); assay type: biochemical; conditions: 50 μM ATP, minimum of n=3
T2 construct: a full length Cytomax clone of ACC2 was purchased from Cambridge Bioscience Limited; made in house; host or cells: CHO cells (tetracycline-inducible, pcDNA5 FRT TO-TOPO)
T2 sequence (O00763 whole entry V2141I): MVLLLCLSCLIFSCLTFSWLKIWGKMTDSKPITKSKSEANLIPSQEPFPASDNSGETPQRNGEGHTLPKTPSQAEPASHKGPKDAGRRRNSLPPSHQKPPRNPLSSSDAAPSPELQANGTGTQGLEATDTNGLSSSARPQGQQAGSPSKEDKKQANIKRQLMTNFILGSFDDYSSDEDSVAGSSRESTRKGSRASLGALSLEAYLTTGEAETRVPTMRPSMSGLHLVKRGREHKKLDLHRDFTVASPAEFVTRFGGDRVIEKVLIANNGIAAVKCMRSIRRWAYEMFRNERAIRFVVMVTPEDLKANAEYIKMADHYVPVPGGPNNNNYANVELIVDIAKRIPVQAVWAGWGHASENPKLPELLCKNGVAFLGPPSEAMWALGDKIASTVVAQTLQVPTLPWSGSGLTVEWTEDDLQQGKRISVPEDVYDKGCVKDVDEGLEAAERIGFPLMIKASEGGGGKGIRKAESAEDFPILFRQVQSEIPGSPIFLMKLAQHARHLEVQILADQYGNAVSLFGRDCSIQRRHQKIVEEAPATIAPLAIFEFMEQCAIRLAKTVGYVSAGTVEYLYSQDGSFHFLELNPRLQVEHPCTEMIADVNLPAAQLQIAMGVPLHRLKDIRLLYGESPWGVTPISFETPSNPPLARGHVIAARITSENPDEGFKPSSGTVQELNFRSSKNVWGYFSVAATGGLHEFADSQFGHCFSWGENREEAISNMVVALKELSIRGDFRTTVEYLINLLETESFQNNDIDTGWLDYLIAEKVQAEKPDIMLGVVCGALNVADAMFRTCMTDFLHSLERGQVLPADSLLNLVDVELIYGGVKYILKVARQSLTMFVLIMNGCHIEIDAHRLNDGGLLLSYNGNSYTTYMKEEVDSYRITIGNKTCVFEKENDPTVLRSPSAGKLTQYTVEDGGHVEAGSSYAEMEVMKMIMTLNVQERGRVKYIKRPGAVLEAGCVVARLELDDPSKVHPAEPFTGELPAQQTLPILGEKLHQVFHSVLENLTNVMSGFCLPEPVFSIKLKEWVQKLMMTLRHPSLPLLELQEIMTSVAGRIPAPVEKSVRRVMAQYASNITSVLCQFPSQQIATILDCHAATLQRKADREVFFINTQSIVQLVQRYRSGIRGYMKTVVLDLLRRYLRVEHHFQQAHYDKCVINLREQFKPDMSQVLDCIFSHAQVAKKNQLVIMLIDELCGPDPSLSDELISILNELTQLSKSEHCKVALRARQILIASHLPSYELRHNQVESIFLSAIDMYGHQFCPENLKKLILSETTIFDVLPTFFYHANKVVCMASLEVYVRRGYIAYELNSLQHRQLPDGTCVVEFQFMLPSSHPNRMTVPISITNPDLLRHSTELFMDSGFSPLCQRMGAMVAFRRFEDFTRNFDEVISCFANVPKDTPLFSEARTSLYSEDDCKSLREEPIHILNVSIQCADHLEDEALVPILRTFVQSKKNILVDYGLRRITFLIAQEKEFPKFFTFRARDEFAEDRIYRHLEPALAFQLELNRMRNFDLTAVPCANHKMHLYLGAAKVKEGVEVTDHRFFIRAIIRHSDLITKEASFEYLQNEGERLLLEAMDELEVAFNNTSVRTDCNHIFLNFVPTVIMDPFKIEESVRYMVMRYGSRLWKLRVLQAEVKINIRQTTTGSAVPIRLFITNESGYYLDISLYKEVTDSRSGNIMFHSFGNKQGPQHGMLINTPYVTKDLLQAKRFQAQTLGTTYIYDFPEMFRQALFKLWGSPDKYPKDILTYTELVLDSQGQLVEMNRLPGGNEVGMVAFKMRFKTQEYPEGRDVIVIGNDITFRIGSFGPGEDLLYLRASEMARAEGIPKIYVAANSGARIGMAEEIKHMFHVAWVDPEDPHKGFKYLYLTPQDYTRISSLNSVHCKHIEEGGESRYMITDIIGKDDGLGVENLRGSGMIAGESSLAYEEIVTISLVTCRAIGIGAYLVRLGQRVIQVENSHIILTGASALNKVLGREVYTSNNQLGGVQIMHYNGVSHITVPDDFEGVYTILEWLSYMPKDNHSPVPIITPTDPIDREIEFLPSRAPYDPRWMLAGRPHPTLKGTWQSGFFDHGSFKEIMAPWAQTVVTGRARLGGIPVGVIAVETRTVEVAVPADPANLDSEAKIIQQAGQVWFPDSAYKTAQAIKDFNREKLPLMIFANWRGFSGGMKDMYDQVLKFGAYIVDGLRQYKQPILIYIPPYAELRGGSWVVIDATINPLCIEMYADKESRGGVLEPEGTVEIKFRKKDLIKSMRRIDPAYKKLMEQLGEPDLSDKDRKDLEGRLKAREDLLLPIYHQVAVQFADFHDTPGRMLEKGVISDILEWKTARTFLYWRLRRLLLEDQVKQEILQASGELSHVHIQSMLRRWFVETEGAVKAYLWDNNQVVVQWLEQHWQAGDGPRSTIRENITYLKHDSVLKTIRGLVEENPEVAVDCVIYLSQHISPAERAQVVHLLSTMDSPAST
Description: For example direct inhibition of ACC activity, for the compound of Formula (1) was determined using preparations of recombinant human ACC1 (rhACC1) and recombinant human ACC2 (rhACC2). Representative sequences of the recombinant human ACC1 and ACC2 that can be used in the assay are provided in FIG. 1 (SEQ ID NO. 1) and FIG. 2 (SEQ. ID NO. 2), respectively.
[3] Preparation of rhACC2. Human ACC2 inhibition was measured using purified recombinant human ACC2 (hrACC2). Briefly, a full length Cytomax clone of ACC2 was purchased from Cambridge Bioscience Limited and was sequenced and subcloned into PCDNA5 FRT TO-TOPO (Invitrogen, Carlsbad, Calif.). The ACC2 was expressed in CHO cells by tetracycline induction and harvested in 5 liters of DMEM/F12 with glutamine, biotin, hygromycin and blasticidin with 1 μg/mL tetracycline (Invitrogen, Carlsbad, Calif.). The conditioned medium containing ACC2 was then applied to a Softlink Soft Release Avidin column (Promega, Madison, Wis.) and eluted with 5 mM biotin. 4 mgs of ACC2 were eluted at a concentration of 0.05 mg/mL (determined by A280) with an estimated purity of 95% ([…]). The purified ACC2 was dialyzed in 50 mM Tris, 200 mM NaCl, 4 mM DTT, 2 mM EDTA, and 5% glycerol. The pooled protein was frozen and stored at −80° C., with no loss of activity upon thawing. For measurement of ACC2 activity and assessment of ACC2 inhibition, test compounds were dissolved in DMSO and added to the rhACC2 enzyme as a 5× stock with a final DMSO concentration of 1%.
[4] Measurement of human ACC2 inhibition. hACC2 was assayed in a Costar #3676 (Costar, Cambridge, Mass.) 384-well plate using the Transcreener ADP detection FP assay kit (Bellbrook Labs, Madison, Wis.) using the manufacturer's recommended conditions for a 50 uM ATP reaction. The final conditions for the assay were 50 mM HEPES, pH 7.2, 5 mM MgCl2, 5 mM tripotassium citrate, 2 mM DTT, 0.1 mg/mL BSA, 30 μM acetyl-CoA, 50 μM ATP, and 8 mM KHCO3. Typically, a 10 μl reaction was run for 50 min at 25° C., and 10 μl of Transcreener stop and detect buffer was added and the combination incubated at room temp for an additional 1 hour. The data was acquired on an Envision Fluorescence reader (Perkinelmer) using a 620 excitation Cy5 FP general dual mirror, 620 excitation Cy5 FP filter, 688 emission (S) and a 688 (P) emission filter.
The results using the recombinant hACC1 and recombinant hACC2 Transcreener assays described above are summarized in the table below for the Compounds of Formula (I) exemplified in the Examples above. All of the examples in both assays were run with a minimum of n=3.

[3] = recombinant hACC1 Transcreener assay, 50 μM ATP, minimum of n=3, read-out: hACC1

| Compound | IC50 [1, 3] | IC50 [2] | IC50 [1] |
| --- | --- | --- | --- |
| 3-{2-[(1-isopropyl-7-oxo-1,4,6,7-tetrahydro-1′H-spiro[indazole-5,4′-piperidin]-1′-yl)carbonyl]-1H-benzimidazol-4-yl}benzoic acid [Example 45] | 4.9 nM | 10 nM |  |
| 3-{5-[(1-isopropyl-7-oxo-1,4,6,7-tetrahydro-1′H-spiro[indazole-5,4′-piperidin]-1′-yl)carbonyl]-6-(methylamino)pyridin-2-yl}benzoic acid [Example 5] | 163 nM | 114 nM |  |
| 4-{5-[(1-tert-butyl-7-oxo-1,4,6,7-tetrahydro-1′H-spiro[indazole-5,4′-piperidin]-1′-yl)carbonyl]-6-(ethylamino)pyridin-2-yl}benzoic acid [Example 13] | 221 nM | 143 nM |  |
| 4-{5-[(1-tert-butyl-7-oxo-1,4,6,7-tetrahydro-1′H-spiro[indazole-5,4′-piperidin]-1′-yl)carbonyl]-6-(methylamino)pyridin-2-yl}benzoic acid [Example 12] | 152 nM | 94.5 nM |  |
| 4-{6-(ethylamino)-5-[(1-isopropyl-7-oxo-1,4,6,7-tetrahydro-1′H-spiro[indazole-5,4′-piperidin]-1′-yl)carbonyl]pyridin-2-yl}benzoic acid [Example 14] | 139 nM | 76.1 nM |  |
| CC(C)(C)n1ncc2c1C(=O)CC1(CCN(C(=O)c3ccc(OCc4ccc(C(=O)O)cc4)cc3)CC1)C2 [Example 1, 4-((4-(1-Tert-butyl-7-oxo-1,4,6,7-tetrahydrospiro[indazole-5,4′-piperidine]-1′-ylcarbonyl)phenoxy)methyl)benzoic acid] | 176 nM | 184 nM |  |
| COc1cc(C(=O)N2CCC3(CC2)CC(=O)c2c(cnn2C(C)C)C3)cc(-c2cccc(C(=O)O)c2)n1 [Example 2, 3-(4-(1-Isopropyl-7-oxo-1,4,6,7-tetrahydrospiro[indazole-5,4′-piperidine]-1′-ylcarbonyl)-6-methoxypyridin-2-yl)benzoic acid] | 59.6 nM | 84.1 nM |  |
| CC(C)n1ncc2c1C(=O)CC1(CCN(C(=O)c3cc(-c4cccc(C(=O)O)c4)[nH]c(=O)c3)CC1)C2 [Example 3, 3-(4-(1-isopropyl-7-oxo-1,4,6,7-tetrahydrospiro[indazole-5,4′-piperidine]-1′-ylcarbonyl)-6-oxo-1,6-dihydropyridin-2-yl)benzoic acid] | 5400 nM | 2260 nM |  |
| CNc1nc(-c2cccc(C(=O)O)c2)ccc1C(=O)N1CCC2(CC1)CC(=O)c1c(cnn1C(C)(C)C)C2 [Example 4, 3-{5-[(1-tert-butyl-7-oxo-1,4,6,7-tetrahydro-1′H-spiro[indazole-5,4′-piperidin]-1′-yl)carbonyl]-6-(methylamino)pyridin-2-yl}benzoic acid] | 116 nM | 53 nM |  |
| CC(C)(C)n1ncc2c1C(=O)CC1(CCN(C(=O)c3ccc(-c4cccc(C(=O)O)c4)cc3)CC1)C2 [Example 6, 4′-[(1-tert-butyl-7-oxo-1,4,6,7-tetrahydro-1′H-spiro[indazole-5,4′-piperidin]-1′-yl)carbonyl]biphenyl-3-carboxylicacid] | 260 nM | 115 nM |  |
| COc1cc(C(=O)N2CCC3(CC2)CC(=O)c2c(cnn2C(C)C)C3)cc(-c2ccc(C(=O)O)cc2)n1 [Example 9, 4-{4-[(1-isopropyl-7-oxo-1,4,6,7-tetrahydro-1′H-spiro[indazole-5,4′-piperidin]-1′-yl)carbonyl]-6-methoxypyridin-2-yl}benzoic acid] |  | 29.7 nM | 30.9 nM |

The next lines start with results.

| IC50 [1, 3] | IC50 [2] | Compound | IC50 [1] |
| --- | --- | --- | --- |
| 113 nM | 74.2 nM | CC(C)n1ncc2c1C(=O)CC1(CCN(C(=O)c3ccc(-c4cccc(C(=O)O)c4)cc3)CC1)C2 [Example 7, 4′-[(1-isopropyl-7-oxo-1,4,6,7-tetrahydro-1′H-spiro[indazole-5,4′-piperidin]-1′-yl)carbonyl]biphenyl-3-carboxylic acid] |  |
| 156 nM | 175 nM | CNc1nc(-c2ccc(C(=O)O)cc2)ccc1C(=O)N1CCC2(CC1)CC(=O)c1c(cnn1C(C)C)C2 [Example 8, 4-{5-[(1-isopropyl-7-oxo-1,4,6,7-tetrahydro-1′H-spiro[indazole-5,4′-piperidin]-1′-yl)carbonyl]-6-(methylamino)pyridin-2-yl}benzoic acid] |  |
| 30.1 nM | 35.5 nM | COc1cc(C(=O)N2CCC3(CC2)CC(=O)c2c(cnn2C(C)(C)C)C3)cc(-c2ccc(C(=O)O)cc2)n1 [Example 10, 4-{4-[(1-tert-butyl-7-oxo-1,4,6,7-tetrahydro-1′H-spiro[indazole-5,4′-piperidin]-1′-yl)carbonyl]-6-methoxypyridin-2-yl}benzoic acid] |  |
| 180 nM | 268 nM | COc1cc(C(=O)N2CCC3(CC2)CC(=O)c2c(cnn2C(C)(C)C)C3)cc(-c2cccc(C(=O)O)c2)n1 [Example 11, 3-{4-[(1-tert-butyl-7-oxo-1,4,6,7-tetrahydro-1′H-spiro[indazole-5,4′-piperidin]-1′-yl)carbonyl]-6-methoxypyridin-2-yl}benzoic acid] |  |
| 6.11 nM | 7.88 nM | CC(C)n1ncc2c1C(=O)CC1(CCN(C(=O)c3cc4c(-c5cccc(C(=O)O)c5)cccc4[nH]3)CC1)C2 [Example 15, 3-{2-[(1-isopropyl-7-oxo-1,4,6,7-tetrahydro-1′H-spiro[indazole-5,4′-piperidin]-1′-yl)carbonyl]-1H-indol-4-yl}benzoic acid] |  |
| 9.75 nM | 11.6 nM | CC(C)n1ncc2c1C(=O)CC1(CCN(C(=O)c3cc4c(-c5ccc(C(=O)O)cc5)cccc4[nH]3)CC1)C2 [Example 16, 4-{2-[(1-isopropyl-7-oxo-1,4,6,7-tetrahydro-1′H-spiro[indazole-5,4′-piperidin]-1′-yl)carbonyl]-1H-indol-4-yl}benzoic acid] |  |
| 15.6 nM | 21.6 nM | CC(C)(C)n1ncc2c1C(=O)CC1(CCN(C(=O)c3cc4c(-c5cccc(C(=O)O)c5)cccc4[nH]3)CC1)C2 [Example 17, 3-{2-[(1-tert-butyl-7-oxo-1,4,6,7-tetrahydro-1′H-spiro[indazole-5,4′-piperidin]-1′-yl)carbonyl]-1H-indol-4-yl}benzoic acid] |  |
